Measurements from the supplement of paper PMC10307832.

Legend:
Experiment in all cases: relative viability (nuclei count vs DMSO), 5 days (fraction); higher = more cells survive
TPCA-1 + Linsitinib = compound: C1=CC(=CC=C1C2=CC(=C(S2)NC(=O)N)C(=O)N)F [TPCA-1] + C[C@]1(O)C[C@@H](c2nc(-c3ccc4ccc(-c5ccccc5)nc4c3)c3c(N)nccn32)C1 [Linsitinib] (partner 1 µM)
How it was run: (§1)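 Relative viability was taken as the ratio of nuclei in treated wells to nuclei in vehicle wells. Lung cancer cell lines in 1536-well plates received compounds by pin tool one day after seeding, either one drug alone or a fixed anchor-drug dose plus five library-drug doses (not always all listed) in √10 steps. Nuclei were counted on 4× images after 5 days of treatment, and values are medians of duplicate plates.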

Lestaurtinib + Lapatinib = compound: C[C@]12O[C@H](C[C@]1(O)CO)n1c3ccccc3c3c4c(c5c6ccccc6n2c5c31)CNC4=O [Lestaurtinib] + CS(=O)(=O)CCNCc1ccc(-c2ccc3ncnc(Nc4ccc(OCc5cccc(F)c5)c(Cl)c4)c3c2)o1 [Lapatinib] (partner 2 µM)
How it was run: as §1

[1] = compound: C1/C(=C\C2=CC=CS2)/C(=O)/C(=C/C3=CC=CS3)/C1 + CC1(C)CCC(c2ccc(Cl)cc2)=C(CN2CCN(c3ccc(C(=O)NS(=O)(=O)c4ccc(N[C@H](CCN5CCOCC5)CSc5ccccc5)c(S(=O)(=O)C(F)(F)F)c4)cc3)CC2)C1 [Navitoclax] (partner 0.5 µM)
How it was run: as §1

[2] = compound: C[C@]12O[C@H](C[C@]1(O)CO)n1c3ccccc3c3c4c(c5c6ccccc6n2c5c31)CNC4=O [Lestaurtinib] + CC(C)C[C@H](NC(=O)[C@H](Cc1ccccc1)NC(=O)c1cnccn1)B(O)O [Bortezomib] (partner 0.002 µM)
How it was run: as §1

## UMC-11
TPCA-1 + Linsitinib; first compound 0.04 µM
  relative viability: 1.03
TPCA-1 + Linsitinib; first compound 0.1265 µM
  relative viability: 1
TPCA-1 + Linsitinib; first compound 0.4 µM
  relative viability: 1.04
TPCA-1 + Linsitinib; first compound 1.265 µM
  relative viability: 0.918
TPCA-1 + Linsitinib; first compound 4 µM
  relative viability: 0.615
Lestaurtinib + Lapatinib; first compound 0.005 µM
  relative viability: 1.01
Lestaurtinib + Lapatinib; first compound 0.01581 µM
  relative viability: 0.921
Lestaurtinib + Lapatinib; first compound 0.05 µM
  relative viability: 0.65
Lestaurtinib + Lapatinib; first compound 0.1581 µM
  relative viability: 0.305
Lestaurtinib + Lapatinib; first compound 0.5 µM
  relative viability: 0.196
[1]; first compound 0.2 µM
  relative viability: 0.302
[1]; first compound 0.6325 µM
  relative viability: 0.362
[1]; first compound 2 µM
  relative viability: 0.307
[1]; first compound 20 µM
  relative viability: 0.307
[2]; first compound 0.005 µM
  relative viability: 0.602
[2]; first compound 0.01581 µM
  relative viability: 0.621
[2]; first compound 0.05 µM
  relative viability: 0.321
[2]; first compound 0.1581 µM
  relative viability: 0.299
[2]; first compound 0.5 µM
  relative viability: 0.171
